Counter-ions that a name gives are not always drawn.
Key:
[1] = test system: fresh human tumour specimens (fourteen hematological, thirteen solid); test: FMCA, IC50 comparison in 27 fresh human tumour specimens; assay type: cell-based; conditions: 27 human tumour samples, 82 to 0.131 μM
[2] = test system: U937vcr (vincristine resistance subline); assay type: cell-based, human
[3] = test system: hematological tumors, primary cultures of human tumor cells from patients (PHTC); assay type: cell-based
[4] = test system: Ovarian carcinoma tumor cell system; test: Cytotoxic activity in different tumor models, ovarian carcinoma; assay type: cell-based, human; conditions: Number 8
[5] = test system: Breast cancer tumor cell system; test: Cytotoxic activity in different tumor models, breast cancer; assay type: cell-based, human; conditions: Number 4
[6] = test system: NSC Lung cancer tumor cell system; test: Cytotoxic activity in different tumor models, NSC lung cancer; assay type: cell-based, human; conditions: Number 8
[7] = test system: Prostate cancer tumor cell system; test: Cytotoxic activity in different tumor models, prostate cancer; assay type: cell-based, human; conditions: Number 1
[8] = test system: Corpus cancer tumor cell system; test: Cytotoxic activity in different tumor models, corpus cancer; assay type: cell-based, human; conditions: Number 4
[9] = test system: Adenocarcinoma tumor cell system; test: Cytotoxic activity in different tumor models, adenocarcinoma; assay type: cell-based, human; conditions: Number 5
[10] = test system: 27 PHTC samples from 9 patients with hematological and 18 patients with solid tumours; test: Circumvention of melphalan resistance, FMCA classification of PHTC samples; assay type: cell-based, human; conditions: 4 μM
[11] = test system: solid tumour types, cell lines and primary cultures of human tumour cells from patients; test: Tumour type specific spectrum of antitumour activity, solid tumour types; assay type: cell-based; conditions: for Activity in the listed diagnoses of Table 5: 4.0 μM
[12] = test system: RPMI 8322 melanoma cells; conditions: cited from earlier work
[13] = test system: H69AR (doxorubicin resistance subline); assay type: cell-based, human
[14] = test system: CEM/S (leukemia CCRF-CEM); test: cells; assay type: cell-based; conditions: Homo sapiens, 72 h, read-out: IC50 (μM), CEM/S
[15] = test system: 8226S (myeloma RPMI 8226); test: cells; assay type: cell-based, human; conditions: Homo sapiens, RPMI-8226, 72 h, read-out: IC50 (μM), 8226S
[16] = test system: panel of ten human tumour cell lines; assay type: cell-based
[17] = test system: U-1752 (non-small cell lung cancer); test: cells; assay type: cell-based; conditions: Homo sapiens, read-out: IC50 (μM), U-1752
[18] = test system: NCI-H611 (non-small cell lung cancer); test: cells; assay type: cell-based; conditions: Homo sapiens, read-out: IC50 (μM), NCI-H611
[19] = test system: NCI-H125 (non-small cell lung cancer); test: cells; assay type: cell-based; conditions: Homo sapiens, NCI-H125, read-out: IC50 (μM), NCI-H125
[20] = test system: U-1568 (non-small cell lung cancer); test: cells; assay type: cell-based; conditions: Homo sapiens, read-out: IC50 (μM), U-1568
[21] = test system: U1906L (small cell lung cancer); test: cells; assay type: cell-based; conditions: Homo sapiens, read-out: IC50 (μM), U1906L
[22] = test system: U1285 (small cell lung cancer); test: cells; assay type: cell-based; conditions: Homo sapiens, read-out: IC50 (μM), U1285
[23] = test system: U-1906E (small cell lung cancer); test: cells; assay type: cell-based; conditions: Homo sapiens, read-out: IC50 (μM), U-1906E
[24] = test system: U1690 (small cell lung cancer); test: cells; assay type: cell-based; conditions: Homo sapiens, read-out: IC50 (μM), U1690

CCOC(=O)[C@H](Cc1ccc(F)cc1)NC(=O)[C@H](Cc1cccc(N(CCCl)CCCl)c1)NC(=O)[C@@H]1CCCN1 [Example P2, L-prolyl-m-L-sarcolysyl-p-L-fluorophenylalanine ethyl ester hydrochloride]
Comparison of IC50s (FIG. 2) [1]: more active than melphalan | IC50 [2]: 1.77 µM | Tumor cell survival index (%), Hematological tumors n = 7-11 [3]: 7% | Median response at 4.0 μM >50% reduction in tumor cell survival [4]: No | Median response at 4.0 μM >50% reduction in tumor cell survival [5]: No | Median response at 4.0 μM >50% reduction in tumor cell survival [6]: No | Median response at 4.0 μM >50% reduction in tumor cell survival [7]: No | Median response at 4.0 μM >50% reduction in tumor cell survival [8]: No | Median response at 4.0 μM >50% reduction in tumor cell survival [9]: No | Number of samples classified EDR (extreme drug resistance) [10]: 1 | Number of samples classified IDR (intermediate drug resistance) [10]: 4 | Samples classified EDR (%) [10]: 5% | Activity in the listed diagnoses of Table 5 [11]: inactive | Toxicity to RPMI 8322 melanoma cells compared with the other PTC peptides [12]: more toxic

CCOC(=O)[C@H](Cc1ccc(F)cc1)NC(=O)[C@@H](N)Cc1ccc(N(CCCl)CCCl)cc1.Cl [Example J1, L-Melphalanyl-L-p-fluorophenylalanine ethyl ester hydrochloride]
Comparison of IC50s (FIG. 2) [1]: in all cases was more active than P2 | IC50 [13]: 0.9 µM | Median response at 4.0 μM >50% reduction in tumor cell survival [4]: Yes | Median response at 4.0 μM >50% reduction in tumor cell survival [5]: Yes | Median response at 4.0 μM >50% reduction in tumor cell survival [6]: Yes | Median response at 4.0 μM >50% reduction in tumor cell survival [8]: No | Median response at 4.0 μM >50% reduction in tumor cell survival [9]: Yes | Number of samples classified EDR (extreme drug resistance) [10]: 1 | Number of samples classified IDR (intermediate drug resistance) [10]: 3 | Samples classified EDR (%) [10]: 6% | Activity in the listed diagnoses of Table 5 [11]: active in most of these diagnoses | Activity against solid tumour types (activity = at least 50% reduction in tumour cell survival) ([11]; cell lines and PHTC): showed activity against several types of solid tumours

CC[C@@]1(O)C(=O)OCc2c1cc1n(c2=O)Cc2cc3c(CN(C)C)c(O)ccc3nc2-1 [Topotecan, topotecan]
IC50 [14]: 0.02 µM | IC50 [15]: 0.87 µM | IC50 (μM), MEAN [16]: 20.0 µM | IC50 [17]: 28 µM | IC50 [18]: ≥ 236 µM | IC50 [19]: ≥ 236 µM | IC50 [20]: 115 µM | IC50 [21]: 0.12 µM | IC50 [22]: 0.17 µM | IC50 [23]: 0.08 µM | IC50 [24]: 0.92 µM

Reference: patent US20040097421A1 (priority 2000, published 2004)
